Values joined by “and” are separate entries in the source; they are usually repeats but may differ in a detail not shown here. Equal values may be shown once.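 In this assay, cells in 96-well plates receive the compound at five concentrations for 48 hours. Endpoints are linearly interpolated between the surrounding concentrations. Here, GI50 denotes the concentration required for 50% inhibition of growth. Definition used: TGI = concentration required for complete inhibition of growth.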
Tests used:
Assay in all cases: DTP human tumour cell line panel, 48 h
[1] = system: OVCAR-3 ovarian
[2] = system: NCI-H460 lung
[3] = system: OVCAR-4 ovarian
[4] = system: UACC-257 melanoma
[5] = system: OVCAR-8 ovarian
[6] = system: SF-295 CNS
[7] = system: RPMI-8226 leukemia
[8] = system: SNB-75 CNS
[9] = system: DU-145 prostate
[10] = system: SW-620 colon

Structure (SMILES) | TGI [1] [µM] | TGI [2] [µM] | TGI [3] [µM] | TGI [4] [µM] | TGI [5] [µM] | TGI [6] [µM] | TGI [7] [µM] | TGI [8] | TGI [9] [µM] | TGI [10] [µM] | GI50 [1] [µM] | GI50 [2] [µM] | GI50 [3] [µM] | GI50 [4] [µM] | GI50 [5] [µM] | GI50 [6] [µM] | GI50 [7] [µM] | GI50 [8] [µM] | GI50 [9] [µM] | GI50 [10] [µM]
CN(C=O)/C=C/c1cc(O)ccc1O | 32.5 | > 74.7 | 33.6 | 52.7 | 72.4 | 47.7 | 75.6 | > 59 µM | > 100 | 37.9 |  |  |  |  |  |  |  |  |  | 
CC/C=C\C/C=C\C[C@H](O)C/C=C1/C(=O)C=C[C@@H]1C/C=C\CCCC(=O)OC | 2.2 | 10.7 | 20.2 | 4.32 | 13 | 5.56 | 7.32 | 24.6 µM | 14.6 | 10.3 | 0.799 | 3.2 | 4.06 | 1.83 | 0.774 | 2.3 | 0.572 | 11.3 | 3.6 | 0.834
OCNCCNc1nc2ccccc2c2[nH]c3ccccc3c12 | 3.67 | 5.8 |  | 5.71 | 8.41 | 5.97 | 2.01 | 11.6 µM | 2.42 | 2.22 | 1.31 | 1.46 |  | 1.64 | 0.809 | 1.41 | 0.84 | 2.28 | 0.735 | 0.366
O=C1CN(/N=C/c2ccc(-c3ccc(F)cc3)o2)C(=O)N1 | > 100 | > 100 |  | > 100 | > 100 | > 100 | > 100 |  | > 100 | > 100 |  |  |  |  |  |  |  |  |  | 
CC1(C)CC[C@]2(C(N)=O)CC[C@]3(C)C(=CC[C@@H]4[C@@]5(C)C/C(=C/c6ccncc6)C(=O)C(C)(C)[C@@H]5CC[C@]43C)[C@@H]2C1 | 3.45 |  | > 100 | 6.68 | > 100 | 3.42 | 4.44 | 8.22 µM | 7.85 | 4.62 | 1.87 |  | 3 | 2.32 | 3.2 | 1.67 | 1.73 | 2.48 | 2.91 | 2.04
COC(=O)c1c(C)nc(C)c(NO)c1-c1ccccc1C(F)(F)F | 30.3 | > 100 | 39.2 | 42.8 | 33.2 | > 100 | 70.6 |  | > 100 | 30.2 |  |  |  |  |  |  |  |  |  | 
CC1=C(C(=O)Nc2ccc(Cl)c(Cl)c2)C(c2ccccc2O)NC(=O)N1 (centres undefined) | > 50 | > 50 | > 50 | > 50 | > 50 | > 50 | > 50 | > 50 µM | > 50 | > 50 | 19.1 | > 50 | 42.7 | > 50 | 24.8 | 40.3 | 34.8 | 25.9 | > 50 | > 50
CC1CCC2N(C1)CC1C3(O)CC45OC6(O)C(O)CCC4(C)C6CCC5C3(O)CC(O)C1(O)C2(C)O (centres undefined) | > 100 | > 100 | > 100 | > 100 | > 100 | > 100 | > 100 | > 100 µM | > 100 | > 100 |  |  |  |  |  |  |  |  |  | 
CC(NC(=O)c1ccccc1)(C(=O)O)C(=O)O | > 100 | > 100 | > 100 | > 100 | > 100 | > 100 | > 100 | > 100 µM | > 100 | > 100 |  |  |  |  |  |  |  |  |  | 
CC(=O)Oc1ccc(/C=N/NC(N)=S)nc1 | > 100 | > 100 | > 100 | 57.7 | > 100 | 42.6 | > 100 | > 100 µM | 8.38 | > 100 | 2.72 | 9.36 | 6.03 | 14.2 | 2.85 | 6.42 | 9.43 | 11.7 | 2.36 | 5.59
O=C(NCCCCCCCNC(=O)OCc1ccc2c(Cl)cc(Cl)c(O)c2n1)OCc1ccc2c(Cl)cc(Cl)c(O)c2n1 | 0.838 | 3.51 | 1.62 | 2.6 | 1.83 | 3.41 | 0.735 | 2.43 µM | 1.99 | 0.744 | 0.298 | 1.4 | 0.465 | 1.21 | 0.395 | 1.73 | 0.247 | 0.905 | 0.672 | 0.273
O=C(c1ccc(Cl)cc1)C1OC12C(=O)Nc1ccccc12 (centres undefined) | > 55.7 | 47.1 | 34.1 | 27.8 | 36 | 33.7 | 10.2 | 32 µM | 33.8 | 17.4 |  |  |  |  |  |  |  |  |  | 
CC(=O)OC1CC2C(=O)C(=O)C1(C)C2(C)C (centres undefined) | > 100 | > 100 | > 100 | > 100 | > 100 | > 100 | > 100 | > 100 µM | > 100 | > 100 |  |  |  |  |  |  |  |  |  | 
COc1cccc(/C=C/C(=O)c2cc3c(N)c(C(=O)Nc4cccc5ccccc45)sc3nc2C)c1 | 2.07 | 3.45 | > 50 | 10.6 | 4.08 | 23.1 | 2.73 | 3.15 µM | 2.86 | 3.1 | 0.892 | 1.22 | 2.65 | 1.48 | 1.23 | 1.67 | 0.461 | 1.02 | 1.14 | 0.538
COc1cc([N+](=O)[O-])c2ncccc2c1[N+](=O)[O-] | 6.72 | 24.6 | 3.37 | 31.2 | 15.9 | 14.3 | 26.5 | 18 µM | 15.8 | 3.44 | 2.68 | 6.07 | 1.82 | 13.5 | 4.33 | 4.51 | 6.15 | 3.77 | 4.39 | 1.82
Nc1[nH]c(=O)ncc1CO | > 100 | > 100 | > 100 | > 100 | > 100 | > 100 | > 100 | > 100 µM | > 100 | > 100 | > 100 | > 100 | > 100 | > 100 | > 100 | > 100 | > 100 | > 100 | > 100 | > 100

Structure (SMILES) | TGI [1] [µM] | TGI [2] [µM] | TGI [3] [µM] | TGI [4] [µM] | TGI [5] [µM] | TGI [6] [µM] | TGI [7] [µM] | TGI [8] | TGI [9] [µM] | TGI [10] [µM] | GI50 [1] [µM] | GI50 [2] [µM] | GI50 [3] [µM] | GI50 [4] [µM] | GI50 [5] [µM] | GI50 [6] [µM] | GI50 [7] [µM] | GI50 [8] [µM] | GI50 [9] [µM] | GI50 [10] [µM]
COc1cnc2cc(C(=O)O)c3ccccc3c2c1 | > 100 | > 100 | > 100 | > 100 | > 100 | > 100 | > 100 | > 100 µM | > 100 | > 100 |  |  |  |  |  |  |  |  |  | 
O=C(Cc1ccccc1)NN1C(=O)/C(=C\c2ccc(O)cc2)SC1=Nc1ccccc1 | > 100 | > 100 | > 100 | > 100 | > 100 | > 100 | > 100 | > 100 µM | > 100 | > 100 |  |  |  |  |  |  |  |  |  | 
Oc1ccc(Cl)cc1Cc1cc(Cl)ccc1O | 8.35 | 10.7 | 11.9 | 5.39 | 8.97 | 6.09 | 5.1 | 24.2 µM | 13.8 | 12.4 | 2.63 | 3 | 2.84 | 1.87 | 2.63 | 2.27 | 1.53 | 4.09 | 3.81 | 3.04
CSc1ccc(C(=O)C(=O)c2ccc(SC)s2)s1 | > 10 | > 10 | > 10 | > 10 | > 10 | > 10 | > 10 | > 10 µM | > 10 | > 10 |  |  |  |  |  |  |  |  |  | 
CC(=O)N(Cc1ccccc1)c1ccccc1I(=O)=O | > 100 | 58.5 | > 100 | > 100 | > 100 | > 100 | 32.7 | > 100 µM | > 100 | 91.9 | 33.9 | 22.8 | 65.4 | > 100 | 48.3 | 48.3 | 15.7 | 50.9 | 29.6 | 29.4
CC(C)C(=O)Oc1cc2c(=O)oc3c(OC(=O)C(C)C)c(OC(=O)C(C)C)cc4c(=O)oc(c1OC(=O)C(C)C)c2c34 | > 100 | > 100 | > 100 | > 100 | > 100 | > 100 | > 100 | > 100 µM | > 100 | > 100 |  |  |  |  |  |  |  |  |  | 
O=C(Cc1csc2nc(-c3ccc(Br)cc3)cn12)N/N=C/c1ccc(O)cc1 | 49.4 | > 100 | > 100 | 7.72 | 25.9 | 41.7 | 40.2 | > 100 µM | 87.4 | > 100 | 24.2 | 56.9 | > 100 | 1.52 | 7.07 | 12 | 4.29 | > 100 | 22.4 | 31.5
Cc1cc([N+](=O)[O-])c(C)c(Br)c1C | > 100 | > 100 | > 100 | > 100 | > 100 | > 100 | > 100 | > 100 µM | > 100 | > 100 |  |  |  |  |  |  |  |  |  | 
Cc1cc(Cl)ccc1NS(=O)(=O)c1ccc(-c2cnc(C3CC3)o2)cc1 | 5.41 | 12.4 | 20.6 | 25.8 | 15.2 | 2.02 | 23.1 | 0.667 µM | 17.9 | 16.1 | 0.186 | 0.37 | 2.98 | 3.85 | 0.427 | 0.0799 | 0.343 | 0.153 | 0.395 | 0.198
Nc1ccc2c(c1)c(N)nn2C(=O)Nc1ccc(Cc2ccccc2)cc1 | 28.3 | 23.8 | 24.1 | 29.7 | > 100 | 15.1 | 35 | 31.5 µM | 24 | 18.7 | 12.1 | 4.64 | 8.29 | 14.5 | 20.2 | 3.96 | 5.14 | 17.4 | 10.9 | 4.48
Cc1nc(N)nc2ccccc12 | > 100 | > 100 | > 100 | > 100 | > 100 | > 100 | > 100 | > 100 µM | > 100 | > 100 |  |  |  |  |  |  |  |  |  | 
C=[CH][Sn]([CH]=C)([O]c1cccc2cccnc12)[O]c1cccc2cccnc12 | 10 | 9.01 | 4.37 | 7.66 | 18.2 | 19.4 | 4.71 | 14 µM | 23.2 | 3.44 | 2.53 | 3.11 | 1.38 | 2.36 | 3.76 | 5.27 | 0.877 | 3.95 | 7.29 | 1.13
CC1=NN(C(=O)c2ccccc2O)C(=O)/C1=C/c1cccc([N+](=O)[O-])c1 | > 47.5 | > 100 | > 100 | > 100 | > 100 | > 100 | > 100 | > 100 µM | > 100 | > 100 |  |  |  |  |  |  |  |  |  | 
CC1OC(OC2CCC3(C=O)C4CCC5(C)C(C6=CC(=O)OC6)CCC5(O)C4CCC3(O)C2)C(O)C(O)C1O (centres undefined) |  | 3.81e-05 | 3.33e-05 | 0.000259 | 6.21e-05 | 6.69e-05 | 0.000124 | 0.36 µM | 1.75e-05 | 8.69e-05 |  |  |  |  |  |  |  |  |  | 
COc1cc(/C=C(\C#N)C(N)=C(C#N)C#N)cc(O)c1O | > 100 | > 100 | > 100 | > 100 | > 100 | > 100 | > 100 | > 100 µM | > 100 | > 100 |  |  |  |  |  |  |  |  |  | 
Nc1ccc(S(=O)(=O)Nc2cnc3c(Cl)cccc3n2)cc1 | 411 | > 750 | > 672 | > 750 | > 750 | 737 | > 705 | > 95 µM and 682 µM | > 750 | > 678 |  | > 77.9 | > 78.1 | > 89.3 | 40.1 |  | > 95.1 | 51.6 |  | 52.3

Source: PubChem BioAssay (NCI)
